# Publication PMC9729294 (Scientific Reports, 2022)
# Experiments:
# Candida albicans = assay: Antifungal disc diffusion, C. albicans; format: cell-based; conditions: Nil = zero inhibition
# Description: (§1) The ligand and its metal(II) complexes were evaluated for antimicrobial activity against two strains, gram-positive bacteria (Staphylococcus aureus and Staphylococcus faecalis), gram-negative bacteria (Escherichia coli and Pseudomonas aeruginosa) and pathogenic fungi (Candida albicans), using DMSO as a negative control. […] The antimicrobial activity of the tested samples was determined using a modified Kirby-Bauer disc diffusion method. All the synthesized compounds were dissolved to prepare a stock solution of 1 mg/mL using DMSO. Stock solution was aseptically transferred, and two-fold diluted to have solutions of different concentrations. The antibacterial and antifungal activities of test compounds were done by filter paper disc method[21] and the activities were determined by measuring the diameters of the inhibition zone (mm). Media with DMF was set up as a control. All cultures were routinely maintained on NA (nutrient agar) and incubated at 37 °C. The inoculums of bacteria were performed by growing the culture in NA broth at 37 °C for overnight. Approximately, 0.1 mL of diluted bacterial or fungal culture suspension was spread with the help of spreader on NA plates uniformly. Solutions of the tested compounds and reference drugs were prepared by dissolving 10 mg of the compound in 10 mL DMF. […]
# Escherichia coli = assay: Antimicrobial disc diffusion, E. coli; format: cell-based; conditions: Nil = zero inhibition
# Description: as §1
# Staphylococcus faecalis = assay: Antimicrobial disc diffusion, S. faecalis; format: cell-based; conditions: Nil = zero inhibition
# Description: as §1
# [1] = test system: Acetylcholinesterase (AChE); assay: AChE inhibition (Ellman method, brain homogenate); format: biochemical; conditions: Standard = donepezil
# Description: Acetylcholinesterase (AChE) activity was evaluated according to a previously reported method. Briefly, 10 μL of different concentrations of the tested compounds (test) or organic solvent (control) was added to 130 μL of phosphate buffer (pH 7.4, 0.1 M) and 20 μL of brain homogenate and then incubated at 37 °C for 45 min. Then, 5 μL of […] (75 mM) was added and incubated for 15 min at 37 °C. After incubation, […] of 0.32 mM DTNB was added. […] The percent inhibition of AChE was calculated as follows: %inhibition \, of \, […]=[A \, control--A \, sample/A \, control]×100.
# [2] = DPPH radical scavenging assay; format: biochemical; conditions: for DPPH radical scavenging activity (% inhibition): Standard = ascorbic acid (vitamin C)
# Description: The oxidative scavenging activity of the ligand and its complexes was evaluated by DPPH (4 mg/100 ml methanol) Zengin, et al.[16]. Briefly, equal volumes of different concentrations ([…], 0.1, 0.2, 0.3, 0.4 and 0.5 mg/mL DMSO) of the tested components were added to DPPH reagent using ascorbic acid as a reference. All the investigated tests were shaken and incubated at room temperature in the dark for 30 min. The decrease in DPPH radicals was evaluated at 490 nm using an ELISA reader. Each test was performed in triplicate. The radical scavenging power was estimated as a percentage of DPPH inhibition using the equation: %inhibition=[(A \, control-A \, sample)/A \, control]×100.
# Pseudomonas aeruginosa = assay: Antimicrobial disc diffusion, P. aeruginosa; format: cell-based; conditions: Nil = zero inhibition
# Description: as §1
# [3] = Reducing power assay (ferricyanide, absorbance at 700 nm); format: biochemical; conditions: Standard = ascorbic acid
# Description: The reducing power capacity of the investigated compounds was evaluated by the method of Oyaizu[18]. Then, 0.5 mL of different concentrations ([…], 0.1, 0.2, 0.3, 0.4 and 0.5 mg/mL in DMSO) was added to 0.5 mL of sodium phosphate buffer (0.2 M, pH 6.6) and 0.5 mL of 1% potassium ferricyanide. The samples were incubated at 50 °C for 20 min. Then, 0.5 mL trichloroacetic acid (10%) was added and centrifuged at 3000 rpm for 15 min. The supernatant (1.0 mL) was incubated with 1.0 mL H2O2 and 0.2 mL of 1% ferric chloride for 30 min. The absorbance of the samples was measured at 700 nm. Ascorbic acid was used as a standard. An increase in the absorbance value indicates a higher reducing power.
# [4] = test system: red blood cell (RBC) membrane; assay: Membrane stabilization (antihemolytic) activity, hypotonic solution-induced RBC lysis; format: cell-based, human
# Description: Anti-inflammatory activities were evaluated through the antihemolytic membrane stabilization effect of the ligand and its metal complexes using a red blood cell (RBC) membrane stabilization method. Fresh whole blood samples were collected in anticoagulant tubes from a healthy volunteer who was not treated with any nonsteroidal anti-inflammatory drugs (NSAIDs) for 2 weeks before the experiment. Erythrocytes were extracted by centrifugation at 3000 rpm for 5 min. The anticoagulated cells were washed 3 times with 0.9% saline and centrifuged at 3000 rpm for 10 min. An RBC suspension (40% v/v) was prepared using isotonic saline phosphate buffer (0.15 M NaCl and 10 mM sodium phosphate buffer, pH 7.4). One milliliter of phosphate buffer (0.15 M, pH 7.4) was added to one mL of various concentrations of the tested compounds (0.05, 0.1, 0.2, 0.3, 0.4 and 0.5 mg/mL DMSO) and 2 mL sodium chloride solution (0.25%). In the control tube, one distilled water was used instead of the tested compounds. Different concentrations of nonsteroidal anti-inflammatory drug (diclofenac potassium) were used as standards. Then, 100 µL of RBC suspension was added to each tube and incubated at room temperature for 60 min. After incubation, the samples were centrifuged for 10 min at 3000 rpm. The absorbance of the supernatant was detected at 540 nm using an ELISA reader. The inhibition of hemolysis in the samples was evaluated according to the equation: %Inhibition \, of \, hemolysis=A \, control-A \, sample/A \, control×100.
# Staphylococcus aureus = assay: Antimicrobial disc diffusion, S. aureus; format: cell-based; conditions: Nil = zero inhibition
# Description: as §1
# [5] = Nitric oxide scavenging assay (sodium nitroprusside / Griess reagent); format: biochemical; conditions: Standard = ascorbic acid
# Description: The nitric oxide scavenging activity of the ligand and its complexes was evaluated following a reported procedure Padmaja, et al.[17]. […] The samples were added to 150 µL Griess reagent (1% sulfanilamide and 0.1% naphthyl ethylenediamine hydrochloride in 2.5% orthophosphoric acid) and incubated at 25 °C for 30 min. The absorbance (A) was read at 540 nm using an ELISA reader. The experiment was repeated in triplicate, and ascorbic acid was used as a standard. The scavenged activity of NO was calculated using the equation %inhibition=[(A \, control-A \, sample)/A \, control]×100.
# [6] = Homo sapiens, Erythrocyte, read-out: Inhibition of RBC hemolysis (membrane stabilization)
structure (smiles),measurement,setting,value
"C[C@@H]1[C@H](O)[C@@H](C)/C=C/C=C/C=C/C=C/C=C/C=C/C=C/[C@H](O[C@@H]2O[C@H](C)[C@@H](O)[C@H](N)[C@@H]2O)C[C@@H]2O[C@](O)(C[C@@H](O)C[C@@H](O)[C@H](O)CC[C@@H](O)C[C@@H](O)CC(=O)O[C@H]1C)C[C@H](O)[C@H]2C(=O)O [Amphotericin B, reference compound]",Inhibition zone diameter,Candida albicans,20 mm/mg sample
Oc1ccc2ccccc2c1/C=N/c1ccc(Cc2ccc(/N=C/c3c(O)ccc4ccccc34)cc2)cc1 [Ligand],Inhibition zone diameter,Escherichia coli,Nil
same,Inhibition zone diameter,Staphylococcus faecalis,Nil
same,AChE percent inhibition,[1]; 0.05 mg/mL,17.70 ± 1.04%
same,AChE percent inhibition,[1]; 0.1 mg/mL,21.83 ± 1.5%
same,AChE percent inhibition,[1]; 0.2 mg/mL,27.27 ± 1.16%
same,AChE percent inhibition,[1]; 0.3 mg/mL,32.90 ± 1.61%
same,AChE percent inhibition,[1]; 0.4 mg/mL,38.57 ± 1.0%
same,AChE percent inhibition,[1]; 0.5 mg/mL,41.97 ± 1.08%
same,DPPH radical scavenging activity (% inhibition),[2]; 0.05 mg/mL,11.5 ± 0.95%
same,DPPH radical scavenging activity (% inhibition),[2]; 0.1 mg/mL,17.53 ± 0.85%
same,DPPH radical scavenging activity (% inhibition),[2]; 0.2 mg/mL,25.33 ± 0.81%
same,DPPH radical scavenging activity (% inhibition),[2]; 0.3 mg/mL,31.13 ± 0.65%
same,DPPH radical scavenging activity (% inhibition),[2]; 0.4 mg/mL,38.83 ± 0.81%
same,DPPH radical scavenging activity (% inhibition),[2]; 0.5 mg/mL,44.43 ± 0.70%
same,Inhibition zone diameter,Pseudomonas aeruginosa,Nil
same,Reducing power (absorbance at 700 nm),[3]; 0.05 mg/mL,0.10 ± 0.01
same,Reducing power (absorbance at 700 nm),[3]; 0.1 mg/mL,0.13 ± 0.001
same,Reducing power (absorbance at 700 nm),[3]; 0.2 mg/mL,0.17 ± 0.01
same,Reducing power (absorbance at 700 nm),[3]; 0.3 mg/mL,0.20 ± 0.01
same,Reducing power (absorbance at 700 nm),[3]; 0.4 mg/mL,0.23 ± 0.001
same,Reducing power (absorbance at 700 nm),[3]; 0.5 mg/mL,0.29 ± 0.01
same,Inhibition zone diameter,Candida albicans,Nil
same,inhibition at 50 µg/mL,[4]; [6],11.8 ± 1.01%
same,inhibition at 100 µg/mL,[4]; [6],19.8 ± 0.75%
same,inhibition at 200 µg/mL,[4]; [6],26.9 ± 0.44%
same,inhibition at 300 µg/mL,[4]; [6],32.7 ± 0.8%
same,inhibition at 400 µg/mL,[4]; [6],38.5 ± 1.16%
same,inhibition at 500 µg/mL,[4]; [6],43.4 ± 0.68%
same,Inhibition zone diameter,Staphylococcus aureus,Nil
same,NO scavenging (% inhibition),[5]; 0.05 mg/mL,15.8 ± 0.78%
same,NO scavenging (% inhibition),[5]; 0.1 mg/mL,21.37 ± 1.38%
same,NO scavenging (% inhibition),[5]; 0.2 mg/mL,27.13 ± 1.58%
same,NO scavenging (% inhibition),[5]; 0.3 mg/mL,37.27 ± 0.97%
same,NO scavenging (% inhibition),[5]; 0.4 mg/mL,42.7 ± 1.78%
same,NO scavenging (% inhibition),[5]; 0.5 mg/mL,47.65 ± 1.49%
"CN(C)[C@@H]1C(O)=C(C(N)=O)C(=O)[C@@]2(O)C(O)=C3C(=O)c4c(O)cccc4[C@@](C)(O)[C@H]3C[C@@H]12 [Tetracycline, reference compound]",Inhibition zone diameter,Escherichia coli,32 mm/mg sample
same,Inhibition zone diameter,Staphylococcus faecalis,33 mm/mg sample
same,Inhibition zone diameter,Pseudomonas aeruginosa,33 mm/mg sample
same,Inhibition zone diameter,Staphylococcus aureus,32 mm/mg sample
"O=C1O[C@H]([C@@H](O)CO)C(O)=C1O [ascorbic acid, reference compound]",DPPH IC50,[2],145 µg/mL
"O=C([O-])Cc1ccccc1Nc1c(Cl)cccc1Cl.[K+] [diclofenac potassium, reference compound]",Antihemolytic activity toward RBCs IC50,[4]; hypotonic solution-induced lysis,120 µg/mL
